US20050142104A1, “Methods of using and compositions comprising PDE4 modulators for the treatment and management of asbestos-related diseases and disorders” (priority 2003, published 2005)

Assays:
[1] = tested on: TNF-α production; assay: In vitro studies: inhibition of TNF-α production following LPS-stimulation of human PBMC and human whole blood; type: cell-based; conditions: comparator thalidomide
Experimental: In a specific embodiment, the pharmacological properties of 3-(3,4-dimethoxy-phenyl)-3-(1-oxo-1,3-dihydro-isoindol-2-yl)-propionamide are characterized in in vitro studies. Studies examine the effects of the compound on the production of various cytokines. Inhibition of TNF-α production following LPS-stimulation of human PBMC and human whole blood by the compound is investigated in vitro. The IC50's of the compound for inhibiting production of TNF-α are measured. […] The pharmacological effects of 3-(3,4-dimethoxy-phenyl)-3-(1-oxo-1,3-dihydro-isoindol-2-yl)-propionamide may derive from its action as an inhibitor of the generation of inflammatory cytokines.

[2] = Clinical studies in unresectable or relapsed mesothelioma patients; type: in vivo, human; conditions: 400 mg as a continuous oral daily dose; mesothelioma patients not responding to conventional therapy
Experimental: Clinical trials with the administration of a PDE4 modulator in an amount of from about 1 mg to about 1,000 mg, from about 1 mg to about 500 mg, or from about 1 mg to about 250 mg per day are conducted in patients with asbestosis, malignant mesothelioma, or malignant pleural effusion mesothelioma syndrome. In a specific embodiment, patients receive about 1 mg to about 1000 mg/day of 3-(3,4-dimethoxy-phenyl)-3-(1-oxo-1,3-dihydro-isoindol-2-yl)-propionamide alone or in combination with vinorelbine. Patients who experience clinical benefit are permitted to continue on treatment.
Other clinical studies are performed using 3-(3,4-dimethoxy-phenyl)-3-(1-oxo-1,3-dihydro-isoindol-2-yl)-propionamide in unresectable or relapsed mesothelioma patients that have not responded to conventional therapy. In one embodiment, 3-(3,4-dimethoxy-phenyl)-3-(1-oxo-1,3-dihydro-isoindol-2-yl)-propionamide is administered in an amount of about 1 mg to about 1,000 mg/day to the patients. Treatment with 400 mg as a continuous oral daily dose is well-tolerated.

For `COc1ccc(C(CC(N)=O)N2Cc3ccccc3C2=O)cc1OC` (centres unmarked) [3-(3,4-Dimethoxy-phenyl)-3-(1-oxo-1,3-dihydro-isoindol-2-yl)-propionamide], the “pharmacological activity profile, potency relative to thalidomide” value [1] was “five to fifty times more potent than thalidomide” and the tolerability [2] was “well-tolerated”.
